Test results reported in patent publication US8361998B2, “Compounds and their use as IKACh blockers” (AstraZeneca AB, priority 2010, dated 2013).
Read-outs that look alike come from different tables or passages of the source.

Target: T1, human cardiac ion channel proteins hKir3.1/Kir3.4 (Homo sapiens, UniProt P48544+P48549)
T1 construct: expressed in transfected cells
T1 sequence (P48549 1-501): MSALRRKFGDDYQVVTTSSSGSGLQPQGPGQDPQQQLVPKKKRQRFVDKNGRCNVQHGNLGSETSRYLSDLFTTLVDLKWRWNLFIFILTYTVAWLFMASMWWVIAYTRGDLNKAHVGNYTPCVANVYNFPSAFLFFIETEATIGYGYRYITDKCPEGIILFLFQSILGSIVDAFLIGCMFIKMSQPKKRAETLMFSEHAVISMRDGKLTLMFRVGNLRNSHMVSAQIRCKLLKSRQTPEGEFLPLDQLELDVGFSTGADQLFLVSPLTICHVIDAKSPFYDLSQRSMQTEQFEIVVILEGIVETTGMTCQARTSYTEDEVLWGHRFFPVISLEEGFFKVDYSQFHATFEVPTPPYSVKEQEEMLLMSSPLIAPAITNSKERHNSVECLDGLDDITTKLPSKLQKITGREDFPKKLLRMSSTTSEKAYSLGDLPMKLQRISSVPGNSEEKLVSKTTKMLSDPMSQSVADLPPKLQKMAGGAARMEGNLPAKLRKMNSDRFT
T1 sequence (P48544 1-419): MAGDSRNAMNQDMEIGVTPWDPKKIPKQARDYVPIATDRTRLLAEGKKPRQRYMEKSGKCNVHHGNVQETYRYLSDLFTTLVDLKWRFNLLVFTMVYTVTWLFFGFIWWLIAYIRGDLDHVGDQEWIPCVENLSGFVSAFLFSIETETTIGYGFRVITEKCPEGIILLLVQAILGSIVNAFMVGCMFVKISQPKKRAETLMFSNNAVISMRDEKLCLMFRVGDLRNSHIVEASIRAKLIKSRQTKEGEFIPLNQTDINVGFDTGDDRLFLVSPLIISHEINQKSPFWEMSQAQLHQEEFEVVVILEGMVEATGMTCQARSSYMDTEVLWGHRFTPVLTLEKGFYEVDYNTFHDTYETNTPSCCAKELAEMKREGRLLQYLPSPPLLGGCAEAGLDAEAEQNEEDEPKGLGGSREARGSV
Assay: Atomic Absorption Screening (AAS) Rb efflux assay of hKir3.1/Kir3.4 block, carbachol/high K+ stimulated, 10-pt or 7-pt CR
Format: cell-based
Outline: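 Mean IC50s derive from >4 replicates over 0.003–67 μmol/L (10-point) or >3 replicates over 0.037–27 μmol/L (7-point), both threefold steps. Rb-loaded (3 h, 37° C) CHO-K1 cells stably expressing hKir3.1/Kir3.4 saw compound for 5 min at RT before 10-min channel opening by carbachol 10 μM/KCl 20 mM final. Released Rb was quantified by atomic absorption.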

[1] = 10-pt CR (0.003 to 67 μmol/L), AAS Rb efflux, CHO-K1 cells expressing hKir3.1/Kir3.4, mean of >4 replicates, read-out: IKACh IC50 10-pt CR, AAS
[2] = 7-pt CR (0.037 to 27 μmol/L), AAS Rb efflux, CHO-K1 cells expressing hKir3.1/Kir3.4, mean of >3 replicates, read-out: IKACh IC50 7-pt CR, AAS
[3] = printed as IC50 >67 μM in the 10-pt CR assay or IC50 >27 μM in the 7-pt CR assay, assay format per compound not stated, read-out: IC50

| Compound | IC50 [1] [µM] | further results |
| --- | --- | --- |
| CN(C(=O)c1ccc(C#N)cc1)C(CN1CC(O)C1)C1CCCC1 (single isomer, unassigned) [32.5, isomer 1] | 0.34 | – |
| CC(C)[C@@H](CN1CCCC1)N(C)C(=O)c1cc(F)c(F)c(F)c1 [Example 16.21, (S)-3,4,5-Trifluoro-N-methyl-N-(3-methyl-1-(pyrrolidin-1-yl)butan-2-yl)benzamide] | – | IC50 [2]: 12 µM |
| Cc1cccc(C(=O)N(C)[C@H](CN2CCC2)C(C)C)c1 [Example 1.16, (S)-N-(1-(Azetidin-1-yl)-3-methylbutan-2-yl)-N,3-dimethyl-benzamide] | 17 | – |
| CN(C(=O)c1ccc(Cl)cc1)C(C)(C)CN1CCCC1 [Example 16.6, 4-Chloro-N-methyl-N-(2-methyl-1-(pyrrolidin-1-yl)propan-2-yl)benzamide] | 20 | – |
| Cc1cc(C(=O)N(C)C(C)(C)CN2CCCC2)ccc1F [4-Fluoro-N,3-dimethyl-N-(2-methyl-1-(pyrrolidin-1-yl)propan-2-yl)benzamide] | – | IC50 [3]: > 27 µM |
| COC1CCN(C[C@H](C(C)C)N(C)C(=O)c2ccc(F)c(C)c2)CC1 [Example 3.8, (S)-4-Fluoro-N-(1-(4-methoxypiperidin-1-yl)-3-methylbutan-2-yl)-N,3-dimethylbenzamide] | 4.8 | – |
| COc1cc(C(=O)N(C)[C@@H](CC(C)C)CN2CC(O)C2)ccc1F [Example 38.5, 4-Fluoro-N-[(2S)-1-(3-hydroxyazetidin-1-yl)-4-methylpentan-2-yl]-3-methoxy-N-methylbenzamide] | 4.2 | – |
| CN(C(=O)c1ccc(F)cc1F)[C@H](CN1CC(O)C1)C1CCC1 [Example 39.4, (S)—N-(1-Cyclobutyl-2-(3-hydroxyazetidin-1-yl)ethyl)-2,4-difluoro-N-methylbenzamide] | 7.8 | – |
| COc1cccc(C(=O)N(C)[C@H](CN2CC(F)C2)C(C)C)c1 [(S)-N-(1-(3-Fluoroazetidin-1-yl)-3-methylbutan-2-yl)-3-methoxy-N-methylbenzamide] | – | IC50 [3]: > 27 µM |
| CC(C)[C@@H](CN1CCCCC1)N(C)C(=O)c1ccc(Cl)c(Cl)c1 [Example 16.28, 3,4-Dichloro-N-methyl-N-[(1S)-2-methyl-1-(piperidin-1-ylmethyl)propyl]benzamide] | – | IC50 [2]: 0.84 µM |
| CC(C)[C@@H](CN1CC[C@@H](O)C1)N(C)C(=O)c1ccc(Cl)cc1 [Example 17.4, 4-Chloro-N—((S)-1-((R)-3-hydroxypyrrolidin-1-yl)-3-methylbutan-2-yl)-N-methylbenzamide] | 17 | – |
| CC[C@H](C)C(CN1CC(O)C1)N(C)C(=O)c1ccc(F)c(F)c1 (stereo in doubt) [Example 29.1, 3,4-Difluoro-N-((2S,3S)-1-(3-hydroxyazetidin-1-yl)-3-methylpentan-2-yl)-N-methylbenzamide] | 9.3 | – |
| CN(C(=O)c1cccc(C(F)F)c1)[C@@H](CN1CC(O)C1)C1CCC1 [Example 35.8, N-[(1R)-1-Cyclobutyl-2-(3-hydroxyazetidin-1-yl)ethyl]-3-(difluoromethyl)-N-methylbenzamide] | 8 | – |
| CCC[C@@H](CN1CC(O)C1)N(C(=O)c1ccc(Cl)cc1)C(C)C [Example 34.1, 4-Chloro-N-[(2S)-1-(3-hydroxyazetidin-1-yl)pentan-2-yl]-N-(propan-2-yl)benzamide] | 3.3 | – |
| CN(C(=O)c1ccc(C#N)cc1)C(CN1CC(O)C1)C1CCCC1 (single isomer, unassigned) [32.5, isomer 2] | 7.5 | – |
| CN(C(=O)c1ccc(Cl)cc1)[C@H](CN1CC(O)C1)C1CCCCC1 [Example 36.2, 4-Chloro-N-[(1S)-1-cyclohexyl-2-(3-hydroxyazetidin-1-yl)ethyl]-N-methylbenzamide] | 0.049 | – |
| CN(C(=O)c1ccc(F)c(Cl)c1)[C@H](CN1CCCC1)C1CC1 [Example 13.1, (S)-3-Chloro-N-(1-cyclopropyl-2-(pyrrolidin-1-yl)ethyl)-4-fluoro-N-methylbenzamide] | 2.5 | – |

| Compound | IC50 [1] [µM] | further results |
| --- | --- | --- |
| CC(C)[C@H](CN1CCCC1)N(C)C(=O)c1ccc(Cl)c(Cl)c1 [Example 16.56, (R)-3,4-Dichloro-N-methyl-N-(3-methyl-1-(pyrrolidin-1-yl)butan-2-yl)benzamide] | – | IC50 [2]: 3.6 µM |
| COc1ccc(C(=O)N(C)[C@H](CN2CC(O)C2)C2CCC2)cc1F [Example 39.6, (S)—N-(1-Cyclobutyl-2-(3-hydroxyazetidin-1-yl)ethyl)-3-fluoro-4-methoxy-N-methylbenzamide] | 0.48 | – |
| Cc1cc(C(=O)N(C)[C@H](CN2CCCC2)C(C)C)ccc1Cl [Example 16.50, (S)-4-Chloro-N,3-dimethyl-N-(3-methyl-1-(pyrrolidin-1-yl)butan-2-yl)benzamide] | – | IC50 [2]: 0.42 µM |
| CC(C)[C@@H](CN1CCCC1)N(C)C(=O)c1ccc(Cl)cc1F [Example 16.53, (S)-4-Chloro-2-fluoro-N-methyl-N-(3-methyl-1-(pyrrolidin-1-yl)butan-2-yl)benzamide] | – | IC50 [2]: 0.9 µM |
| CC[C@H](C)[C@@H](CN1CC(O)C1)N(C)C(=O)c1ccc(Cl)cc1 [Example 29.2, 4-Chloro-N-((2S,3S)-1-(3-hydroxyazetidin-1-yl)-3-methylpentan-2-yl)-N-methylbenzamide] | 0.16 | – |
| CN(C(=O)c1ccc(Br)cc1)[C@H](CN1CCCC1)C1CC1 [Example 3.15, (S)-4-Bromo-N-(1-cyclopropyl-2-(pyrrolidin-1-yl)ethyl)-N-methylbenzamide] | 3.8 | – |
| Cc1c(F)cccc1C(=O)N(C)[C@H](CN1CCCC1)C(C)C [Example 16.13, (S)-3-Fluoro-N,2-dimethyl-N-(3-methyl-1-(pyrrolidin-1-yl)butan-2-yl)benzamide] | 14 | IC50 [2]: 5.3 µM |
| CCC[C@@H](CN1CC(O)C1)N(C)C(=O)c1ccc(F)c(C)c1 [Example 8.11, (S)-4-Fluoro-N-(1-(3-hydroxyazetidin-1-yl)pentan-2-yl)-N,3-di-methylbenzamide] | 0.84 | – |
| CN(C(=O)c1ccc(C#N)cc1)[C@@H](CN1CC(O)C1)C1CCC1 [Example 35.2, 4-Cyano-N-[(1R)-1-cyclobutyl-2-(3-hydroxyazetidin-1-yl)ethyl]-N-methylbenzamide] | 14 | – |
| CO[C@H](C)[C@@H](CN1CC(O)C1)N(C)C(=O)c1ccc(Cl)cc1 [Example 30, 4-Chloro-N-((2R,3R)-1-(3-hydroxyazetidin-1-yl)-3-methoxybutan-2-yl)-N-methylbenzamide] | 6.3 | – |
| Cc1c(F)cccc1C(=O)N(C)[C@H](CN1CC[C@H](O)C1)C(C)C [Example 16.45, 3-Fluoro-N—((S)-1-((S)-3-hydroxypyrrolidin-1-yl)-3-methylbutan-2-yl)-N,2-dimethylbenzamide] | – | IC50 [2]: 16 µM |
| CN(C(=O)c1ccc(F)cc1)[C@H](CN1CC(O)C1)C1CCCCC1 [Example 36.7, N-[(1S)-1-Cyclohexyl-2-(3-hydroxyazetidin-1-yl)ethyl]-4-fluoro-N-methylbenzamide] | 1.4 | – |
| CC(C)[C@@H](CN1CCCC1)N(C)C(=O)c1cc(F)cc(C(F)(F)F)c1 [Example 16.8, (S)-3-Fluoro-N-methyl-N-(3-methyl-1-(pyrrolidin-1-yl)butan-2-yl)-5-(trifluoromethyl)benzamide] | – | IC50 [2]: 8 µM |
| CC(C)[C@@H](CN1CC[C@H](O)C1)N(C)C(=O)c1cc(C(F)(F)F)ccc1F [2-Fluoro-N-[(1S)-1-{[(3S)-3-hydroxypyrrolidin-1-yl]methyl}-2-methylpropyl]-N-methyl-5-(trifluoromethyl)benzamide] | – | IC50 [3]: > 27 µM |
| CCC[C@@H](CN1CC(OCC#N)C1)N(C)C(=O)c1ccc(Cl)cc1 [Example 31.3, 4-chloro-N-{(2S)-1-[3-(cyanomethoxy)azetidin-1-yl]pentan-2-yl}-N-methylbenzamide] | 1.7 | – |
| COc1cc(C(=O)N(C)[C@H](CN2CCCC2)C(C)C)ccc1F [Example 16.11, (S)-4-Fluoro-3-methoxy-N-methyl-N-(3-methyl-1-(pyrrolidin-1-yl)butan-2-yl)benzamide] | – | IC50 [2]: 11 µM |
| COc1cccc(C(=O)N(C)[C@H](CN2CCCC(F)(F)C2)C(C)C)c1 [N-[(1S)-1-[(3,3-Difluoro-1-piperidyl)methyl]-2-methyl-propyl]-3-methoxy-N-methyl-benzamide] | – | IC50 [3]: > 27 µM |
